Test results from the NIST ThermoML archive (doi:10.1016/j.jct.2015.06.020).
Numbers after ± are expanded uncertainties.

How the values were obtained:
[1] = Crystal; DTA
[2] = Molar enthalpy of transition or fusion; conditions: Crystal; DSC
[3] = molar heat capacity at constant pressure; conditions: 101.33 kPa, Crystal, Large sample (1 g) DSC

NC(=NO)c1nonc1N [4-amino-3-furazancarboxamidoxime]
Conditions	Molar enthalpy of transition or fusion [kcal/mol]	Normal melting temperature [°C]
[1]	–	180.41 ± 0.86
[2]	8.99 ± 0.213	–

[3]
Conditions	molar heat capacity at constant pressure [J/K/mol]
283.15 K	173.37 ± 3.5
288.15 K	175.71 ± 3.5
293.15 K	178.06 ± 3.6
298.15 K	180.4 ± 3.6
303.15 K	182.75 ± 3.7
308.15 K	185.1 ± 3.7
313.15 K	187.44 ± 3.8
318.15 K	189.79 ± 3.8
323.15 K	192.13 ± 3.8
328.15 K	194.48 ± 3.9
333.15 K	196.83 ± 3.9
338.15 K	199.17 ± 4
343.15 K	201.52 ± 4
348.15 K	203.86 ± 4.1
353.15 K	206.21 ± 4.1
